Data published in patent publication US11149031B2, “Substituted N-(3-fluoropropyl)-pyrrolidine compounds, processes for their preparation and therapeutic uses thereof” (SANOFI, priority 2016, dated 2021).
Where two headings read alike, the source gives them in different places.

Key:
[1] = target: His6-ERα298-554 Y537S mutant (ERα ligand-binding domain) (Homo sapiens (Human), UniProt P03372, Y537S); assay: Test A: biochemical antagonist activity, LanthaScreen TR-FRET ERα coactivator assay, Y537S mutant; conditions: asterisk (*): protocol using 10 nM estradiol; read-out: Antagonism Y537S IC50
His6-ERα298-554 Y537S mutant (ERα ligand-binding domain), sequence (P03372 298-554 Y537S): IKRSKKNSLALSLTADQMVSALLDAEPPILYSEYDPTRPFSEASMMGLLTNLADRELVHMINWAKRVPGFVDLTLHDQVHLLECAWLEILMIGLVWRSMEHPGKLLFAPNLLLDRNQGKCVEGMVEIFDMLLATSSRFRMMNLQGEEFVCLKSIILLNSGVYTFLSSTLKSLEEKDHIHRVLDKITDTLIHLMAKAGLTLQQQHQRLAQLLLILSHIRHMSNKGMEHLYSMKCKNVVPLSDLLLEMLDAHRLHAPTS
Procedure, shortened: (§1)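 IC50 values come from a 4-parameter logistic fit of the 520:495 nm TR-FRET ratio after overnight room-temperature incubation. The mix held 0.5 nM ERα 298–554 LBD, Tb-labelled anti-His6 antibody, 250 nM PGC1a peptide and 3 nM or 10 nM estradiol, pH 7.4 phosphate buffer with DTT.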

[2] = test system: MCF7 cells expressing mutant estrogen receptor Asp 538 Gly; assay: Test B: cell proliferation/viability assay (CellTiter-Glo) on MCF7 Asp 538 Gly mutant; assay type: cell-based; conditions: Homo sapiens, MCF7 cells expressing ER Asp 538 Gly mutant, 7 days of compound exposure, read-out: proliferation MCF7 D538G IC50
Procedure, shortened: (§2)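 Compound exposure lasted 7 days (3-0.000001 μM final, 9 points) in phenol red-free MEM with 5% charcoal dextran-stripped FBS. The mutant lines grew without estradiol. Luminescent signal, minus medium-only background, was expressed as percent of untreated cells.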

[3] = test system: MCF7 cells (breast tumor cells) WT; assay: Test B: cell proliferation/viability assay (CellTiter-Glo) on MCF7 WT; assay type: cell-based; conditions: Homo sapiens, 7 days of compound exposure
Procedure, shortened: as §2

[4] = test system: MCF7 cells expressing mutant estrogen receptor Tyr 537 Ser; assay: Test B: cell proliferation/viability assay (CellTiter-Glo) on MCF7 Tyr 537 Ser mutant; assay type: cell-based; conditions: Homo sapiens, MCF7 cells expressing ER Tyr 537 Ser mutant, 7 days of compound exposure, read-out: proliferation MCF7 Y537S IC50
Procedure, shortened: as §2

[5] = target: His6-ERα298-554 WT (ERα ligand-binding domain) (Homo sapiens (Human), UniProt P03372); assay: Test A: biochemical antagonist activity, LanthaScreen TR-FRET ERα coactivator assay, WT; conditions: asterisk (*): protocol using 10 nM estradiol; read-out: Antagonism WT IC50
His6-ERα298-554 WT (ERα ligand-binding domain), sequence (P03372 298-554): as the sequence (P03372 298-554 Y537S) above, with S240Y counted along it
Procedure, shortened: as §1

[6] = target: His6-ERα298-554 D538G mutant (ERα ligand-binding domain) (Homo sapiens (Human), UniProt P03372, D538G); assay: Test A: biochemical antagonist activity, LanthaScreen TR-FRET ERα coactivator assay, D538G mutant; conditions: asterisk (*): protocol using 10 nM estradiol; read-out: Antagonism D538G IC50
His6-ERα298-554 D538G mutant (ERα ligand-binding domain), sequence (P03372 298-554 D538G): as the sequence (P03372 298-554 Y537S) above, with S240Y, D241G counted along it
Procedure, shortened: as §1

ERα in MCF7 cells = ERα in MCF7 cells (Homo sapiens (Human), UniProt P03372); assay: Test C: estrogen receptor degradation activity, ERα in cell western assay in MCF7 cells; assay type: cell-based; conditions: for DC50: 4 hours post compound addition, ERα in cell western, read-out: Degradation IC50; for % Degradation at 3 μM: 4 hours, relative to fulvestrant
ERα in MCF7 cells, sequence (P03372 whole entry): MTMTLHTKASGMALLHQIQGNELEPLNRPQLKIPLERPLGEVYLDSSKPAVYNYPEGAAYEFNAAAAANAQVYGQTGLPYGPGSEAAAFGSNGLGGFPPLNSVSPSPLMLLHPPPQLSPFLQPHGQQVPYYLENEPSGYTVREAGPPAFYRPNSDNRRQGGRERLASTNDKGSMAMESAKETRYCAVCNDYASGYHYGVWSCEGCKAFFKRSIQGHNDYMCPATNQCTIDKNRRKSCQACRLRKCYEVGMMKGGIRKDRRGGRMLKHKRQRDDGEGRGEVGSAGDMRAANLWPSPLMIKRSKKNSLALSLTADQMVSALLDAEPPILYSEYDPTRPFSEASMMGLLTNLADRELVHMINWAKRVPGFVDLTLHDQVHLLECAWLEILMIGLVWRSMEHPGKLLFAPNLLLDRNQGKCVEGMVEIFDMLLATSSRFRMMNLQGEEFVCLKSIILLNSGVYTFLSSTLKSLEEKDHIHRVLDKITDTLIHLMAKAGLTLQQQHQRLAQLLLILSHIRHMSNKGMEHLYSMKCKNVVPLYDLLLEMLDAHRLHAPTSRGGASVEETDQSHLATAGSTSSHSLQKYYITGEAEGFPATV
Procedure, shortened: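 Steps: seed MCF7 in phenol red-free medium containing 5% charcoal-dextran stripped FBS; next day add compound, final 3–0.000018 μM; after 4 h fix with 5% formalin plus 0.1% Triton; stain ERα overnight, then secondary at 37 °C for 60 min with Syto-64 at 2 μM; scan green and red intensities.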

Compound	IC50 [1] [nM]	IC50 ([2]; MCF7, 168 h) [nM]	IC50 ([3]; MCF7, 168 h) [nM]	IC50 ([4]; MCF7, 168 h) [nM]	IC50 [5] [nM]	IC50 [6] [nM]	DC50 (ERα in MCF7 cells) [nM]	% Degradation at 3 μM (ERα in MCF7 cells) [%]	IC50 ([2]; 168 h) [nM]	IC50 ([3]; 168 h) [nM]	IC50 ([4]; 168 h) [nM]
Oc1ccc2c(c1)SCC(c1ccc(O)nc1F)=C2c1ccc(O[C@H]2CCN(CCCF)C2)cc1 [Example 46, 6-fluoro-5-[4-[4-[(3S)-1-(3-fluoropropyl)pyrrolidin-3-yl]oxyphenyl]-7-hydroxy-2H-thiochromen-3-yl]pyridin-2-ol]	59	0.5	0.1	2	5	101	0.2	83			
Cc1ccc(C2=C(c3ccc(O[C@H]4CCN(CCCF)C4)cc3)c3ccc(OP(=O)(O)O)cc3SC2)c(F)c1 [Example 48, [3-(2-fluoro-4-methyl-phenyl)-4-[4-[(3S)-1-(3-fluoropropyl)pyrrolidin-3-yl]oxyphenyl]-2H-thiochromen-7-yl]dihydrogen phosphate]	> 4000				> 4000	> 4000	0.8	89	6	1	17
Oc1ccc2c(c1)SCC(c1ccc(F)nc1F)=C2c1ccc(O[C@H]2CCN(CCCF)C2)cc1 [Example 49, 3-(2,6-difluoro-3-pyridyl)-4-[4-[(3S)-1-(3-fluoropropyl)pyrrolidin-3-yl]oxyphenyl]-2H-thiochromen-7-ol]	472	0.9	0.3	3	37	888	0.2	89			
Oc1ccc2c(c1)SCC(c1ccc(Cl)nc1Cl)=C2c1ccc(O[C@H]2CCN(CCCF)C2)cc1 [Example 50, 3-(2,6-dichloro-3-pyridyl)-4-[4-[(3S)-1-(3-fluoropropyl)pyrrolidin-3-yl]oxyphenyl]-2H-thiochromen-7-ol]	1170	2	0.6	7	72	1550	0.2	84			
O=C1Cc2cc(C3=C(c4ccc(O[C@H]5CCN(CCCF)C5)cc4)c4ccc(O)cc4SC3)ccc2N1 [Example 51, 5-[4-[4-[(3S)-1-(3-fluoropropyl)pyrrolidin-3-yl]oxyphenyl]-7-hydroxy-2H-thiochromen-3-yl]indolin-2-one]	3600	148	91	230	350	> 4000	12	85			
CC(C)(C)c1ccc(C2=C(c3ccc(O[C@H]4CCN(CCCF)C4)cc3)c3ccc(O)cc3SC2)cc1 [Example 52, 3-(4-tert-butylphenyl)-4-[4-[(3S)-1-(3-fluoropropyl)pyrrolidin-3-yl]oxyphenyl]-2H-thiochromen-7-ol]	2910	3	2	41	351	> 4000	1	84			
CCOc1nccc(C2=C(c3ccc(O[C@H]4CCN(CCCF)C4)cc3)c3ccc(O)cc3SC2)c1Cl [Example 53, 3-(3-chloro-2-ethoxy-4-pyridyl)-4-[4-[(3S)-1-(3-fluoropropyl)pyrrolidin-3-yl]oxyphenyl]-2H-thiochromen-7-ol]	25	0.2	0.2	5	2	36	0.2	84			
Oc1ccc2c(c1)SCC(c1ccc(OC(F)(F)F)cc1)=C2c1ccc(O[C@H]2CCN(CCCF)C2)cc1 [Example 54, 4-[4-[(3S)-1-(3-fluoropropyl)pyrrolidin-3-yl]oxyphenyl]-3-[4-(trifluoromethoxy)phenyl]-2H-thiochromen-7-ol]	2640	3	3	21	246	3030	1	74			
